From patent US12404289B2 (Gilead Sciences, Inc., priority 2020, dated 2025)
Like-named read-outs stand apart in the source and are kept apart here.

Columns and labels:
Assay type in all cases: cell-based
SARS-CoV-2 = SARS-CoV-2 antiviral assay (A549-hACE2, Nano luciferase); details: A549-hACE2 cells, SARS-CoV2-Nano, MOI 0.025, 48 h, Table 4, read-out: EC50 SARS CoV2
[1] = test system: Respiratory syncytial virus (RSV) strain A2; experiment: Hep-2 RSV2 384-well assay (EC50-HEP2-384); details: HEp-2 cells, RSV A2, MOI=4, 4 days
[2] = test system: Respiratory syncytial virus recombinant with luciferase (RSV-Luc5); experiment: microbe, parasite or virus in culture
[3] = test system: Recombinant respiratory syncytial virus expressing the firefly luciferase protein (RSV-Fluc); experiment: microbe, parasite or virus in culture; details: Table 4
[4] = test system: Respiratory syncytial virus (RSV) strain A2; experiment: RSV antiviral assay (HEp-2, 96 well); details: Table 3
[5] = Severe acute respiratory syndrome coronavirus 2, 48 h
[6] = human respiratory syncytial virus, NHBE, 72 h, read-out: EC50 RSVFluc NHBE 96, NHBE cells, RSV-Fluc, MOI of 0.1, three days, 96 well
[7] = read-out: EC50 RSVFluc NHBE 96, NHBE cells, RSV-Fluc, MOI of 0.1, three days, 96 well
[8] = human respiratory syncytial virus, HEp-2, 72 h, read-out: EC50 RSVFluc-Hep2 384, HEp-2 cells, RSV-Luc5, MOI=0.5, 3 days, 384 well, Table 3
[9] = read-out: EC50 RSVFluc-Hep2 384, HEp-2 cells, RSV-Luc5, MOI=0.5, 3 days, 384 well, Table 3
[10] = read-out: EC50 RSV HEP2 96, HEp-2 cells, RSV A2, MOI=4, 4 days, 96 well
[11] = human respiratory syncytial virus, HEp-2, 96 h, Table 3

Row | Compound | EC50 (SARS-CoV-2; [5]) | EC50 [3, 6] | EC50 (SARS-CoV-2) | EC50 [3, 7] | EC50 [2, 8] | EC50 [2, 9] | also measured
1 | CCC(CC)COC(=O)[C@H](C)NP(=O)(OC[C@H]1O[C@@](C#N)(c2ccc3c(N)ncnn23)[C@H](O)[C@@H]1O)Oc1ccc(C(C)(C)C)cc1 (single isomer, unassigned) [Example 13a] | 181 nM | 5.92 nM |  |  |  |  | EC50 ([1]; Table 1): 91.2 nM; EC50 ([2]; human respiratory syncytial virus, HEp-2, 72 h, read-out: EC50 RSVFluc-Hep2 384, HEp-2 cells, RSV-Luc5, MOI=0.5, 3 days, 384 well, One-Glo, Table 1): 52.1 nM
2 | CCC(CC)COC(=O)[C@H](C)NP(=O)(OC[C@H]1O[C@@](C#N)(c2ccc3c(N)ncnn23)[C@H](O)[C@@H]1O)Oc1ccc(C(C)(C)C)cc1 (single isomer, unassigned) [Example 13b] |  |  | 174 nM | 6.86 nM |  |  | EC50 ([1]; Table 1): 33.4 nM; EC50 ([2]; read-out: EC50 RSVFluc-Hep2 384, HEp-2 cells, RSV-Luc5, MOI=0.5, 3 days, 384 well, One-Glo, Table 1): 26.7 nM
3 | C[C@H](NP(=O)(OC[C@H]1O[C@@](C#N)(c2ccc3c(N)ncnn23)[C@H](O)[C@@H]1O)Oc1ccccc1)C(=O)OC1CC2(CCC2)C1 (single isomer, unassigned) [Example 44a] | 102 nM | 9.13 nM |  |  | 21.7 nM |  | 
4 | C[C@H](NP(=O)(OC[C@H]1O[C@@](C#N)(c2ccc3c(N)ncnn23)[C@H](O)[C@@H]1O)Oc1ccccc1)C(=O)OC1CC2(CCC2)C1 (single isomer, unassigned) [Example 44b] |  |  | 130 nM | 12.4 nM |  | 22.9 nM | 
5 | CC(=O)O[C@H]1[C@@H](OC(C)=O)[C@](C#N)(c2ccc3c(N)ncnn23)O[C@@H]1COP(=O)(N[C@@H](C)C(=O)OC1CC2(CCC2)C1)Oc1ccccc1 (single isomer, unassigned) [Example 45a] | 72.8 nM | 7.29 nM |  |  |  | 22.7 nM | EC50 ([1]; Table 3): 60.4 nM
6 | CC(=O)O[C@H]1[C@@H](OC(C)=O)[C@](C#N)(c2ccc3c(N)ncnn23)O[C@@H]1COP(=O)(N[C@@H](C)C(=O)OC1CC2(CCC2)C1)Oc1ccccc1 (single isomer, unassigned) [Example 45b] |  |  | 56.9 nM | 10.3 nM |  | 6.87 nM | EC50 ([1]; Table 3): 23.9 nM
7 | CC(C)C(=O)O[C@H]1[C@@H](OC(=O)C(C)C)[C@](C#N)(c2ccc3c(N)ncnn23)O[C@@H]1COP(=O)(N[C@@H](C)C(=O)OC1CC2(CCC2)C1)Oc1ccccc1 (single isomer, unassigned) [Example 46a] | 249 nM | 5.59 nM |  |  | 30.2 nM |  | 
8 | CC(C)C(=O)O[C@H]1[C@@H](OC(=O)C(C)C)[C@](C#N)(c2ccc3c(N)ncnn23)O[C@@H]1COP(=O)(N[C@@H](C)C(=O)OC1CC2(CCC2)C1)Oc1ccccc1 (single isomer, unassigned) [Example 46b] |  |  | 400 nM | 6.63 nM |  | 30 nM | 
9 | CCC(=O)O[C@H]1[C@@H](OC(=O)CC)[C@](C#N)(c2ccc3c(N)ncnn23)O[C@@H]1COP(=O)(N[C@@H](C)C(=O)OCC(CC)CC)Oc1cccc2ccccc12 (single isomer, unassigned) [Example 79b] |  | 6.33 nM | 27.8 nM |  | 45.6 nM |  | EC50 [4, 10]: 21.6 nM
10 | CC(=O)O[C@H]1[C@@H](OC(C)=O)[C@](C#N)(c2ccc3c(N)ncnn23)O[C@@H]1COP(=O)(N[C@@H](C)C(=O)OC1CC2(CCC2)C1)Oc1cccc2ccccc12 (single isomer, unassigned) [Example 83a] | 49 nM | 6.98 nM |  |  | 32.8 nM |  | EC50 [4, 10]: 21.9 nM
11 | CC(C)C(=O)O[C@H]1[C@@H](OC(=O)C(C)C)[C@](C#N)(c2ccc3c(N)ncnn23)O[C@@H]1COP(=O)(N[C@@H](C)C(=O)OC1CC2(CCC2)C1)Oc1cccc2ccccc12 (single isomer, unassigned) [Example 86a] |  | 7.93 nM | 109 nM |  |  | 88.2 nM | EC50 ([4]; human respiratory syncytial virus, HEp-2, 96 h, read-out: EC50 RSV HEP2 96, HEp-2 cells, RSV A2, MOI=4, 4 days, 96 well): 21.6 nM
12 | CC(C)C(=O)O[C@H]1[C@@H](OC(=O)C(C)C)[C@](C#N)(c2ccc3c(N)ncnn23)O[C@@H]1COP(=O)(N[C@@H](C)C(=O)OC1CC2(CCC2)C1)Oc1cccc2ccccc12 (single isomer, unassigned) [Example 86b] |  |  | 23.6 nM | 9.46 nM |  | 28.3 nM | EC50 [4, 10]: 20.9 nM
13 | CC(=O)O[C@H]1[C@@H](OC(C)=O)[C@](C#N)(c2ccc3c(N)ncnn23)O[C@@H]1COP(=O)(N[C@@H](C)C(=O)OC1CC(C)(C)C1)Oc1ccc(C(C)(C)C)cc1 (single isomer, unassigned) [Example 96a] | 198 nM |  |  | 8.53 nM | 21.2 nM |  | EC50 [1, 11]: 26.5 nM
14 | CC(=O)O[C@H]1[C@@H](OC(C)=O)[C@](C#N)(c2ccc3c(N)ncnn23)O[C@@H]1COP(=O)(N[C@@H](C)C(=O)OC1CC(C)(C)C1)Oc1ccc(C(C)(C)C)cc1 (single isomer, unassigned) [Example 96b] |  |  | 276 nM | 25.1 nM |  | 22.5 nM | EC50 ([1]; Table 3): 27.9 nM
15 | CC(=O)O[C@H]1[C@@H](OC(C)=O)[C@](C#N)(c2ccc3c(N)ncnn23)O[C@@H]1COP(=O)(N[C@@H](C)C(=O)OCC1CC1)Oc1ccc(C(C)(C)C)cc1 (single isomer, unassigned) [Example 102a] | 155 nM | 8.46 nM |  |  |  | 8.68 nM | EC50 [1, 11]: 32 nM
16 | CC(=O)O[C@H]1[C@@H](OC(C)=O)[C@](C#N)(c2ccc3c(N)ncnn23)O[C@@H]1COP(=O)(N[C@@H](C)C(=O)OCC1CC1)Oc1ccc(C(C)(C)C)cc1 (single isomer, unassigned) [Example 102b] |  |  | 86 nM |  |  | 26 nM | EC50 ([1]; Table 3): 43 nM
17 | C[C@H](NP(=O)(OC[C@H]1O[C@@](C#N)(c2ccc3c(N)ncnn23)[C@H](O)[C@@H]1O)Oc1ccccc1)C(=O)OC1CC2(CCC2)C1 (stereo partly drawn) [Example 44, spiro[3.3]heptan-2-yl ((((2R,3S,4R,5R)-5-(4-aminopyrrolo[2,1-f][1,2,4]triazin-7-yl)-5-cyano-3,4-dihydroxytetrahydrofuran-2-yl)methoxy)(phenoxy)phosphoryl)-L-alaninate] | 104 nM | 9.47 nM |  |  | 18.3 nM |  | EC50 [1, 11]: 56 nM
18 | CC(C)C(=O)O[C@H]1[C@@H](OC(=O)C(C)C)[C@](C#N)(c2ccc3c(N)ncnn23)O[C@@H]1COP(=O)(N[C@@H](C)C(=O)OCC1CC1)Oc1ccc(C(C)(C)C)cc1 (stereo partly drawn) [Example 104b, (2R,3R,4R,5R)-2-(4-aminopyrrolo[2,1-f][1,2,4]triazin-7-yl)-5-((((4-(tert-butyl)phenoxy)(((S)-1-(cyclopropylmethoxy)-1-oxopropan-2-yl)amino)phosphoryl)oxy)methyl)-2-cyanotetrahydrofuran-3,4-diyl bis(2-methylpropanoate)] |  |  | 294 nM |  | 22.8 nM |  | EC50 ([1]; Table 3): 57.8 nM
19 | C[C@H](NP(=O)(OC[C@H]1O[C@@](C#N)(c2ccc3c(=N)n(COP(=O)(O)O)cnn23)[C@H](O)[C@@H]1O)Oc1cccc2ccccc12)C(=O)OC1CC2(CCC2)C1 (stereo partly drawn) [Example 177, spiro[3.3]heptan-2-yl ((((2R,3S,4R,5R)-5-cyano-3,4-dihydroxy-5-(4-imino-3-((phosphonooxy)methyl)-3,4-dihydropyrrolo[2,1-f][1,2,4]triazin-7-yl)tetrahydrofuran-2-yl)methoxy)(naphthalen-1-yloxy)phosphoryl)-L-alaninate] | 410 nM | 16 nM |  |  | 17 nM |  | 
20 | CC(C)C(=O)O[C@H]1[C@@H](OC(=O)C(C)C)[C@](C#N)(c2ccc3c(=N)n(COP(=O)(O)O)cnn23)O[C@@H]1COP(=O)(N[C@@H](C)C(=O)OC1CC2(CCC2)C1)Oc1cccc2ccccc12 (stereo partly drawn) [Example 178, (2R,3R,4R,5R)-2-cyano-2-(4-imino-3-((phosphonooxy)methyl)-3,4-dihydropyrrolo[2,1-f][1,2,4]triazin-7-yl)-5-((((naphthalen-1-yloxy)(((S)-1-oxo-1-(spiro[3.3]heptan-2-yloxy)propan-2-yl)amino)phosphoryl)oxy)methyl)tetrahydrofuran-3,4-diyl bis(2-methylpropanoate)] | 1370 nM | 12.2 nM |  |  | 85 nM |  | 
21 | CCC(CC)COC(=O)[C@H](C)NP(=O)(OC[C@H]1O[C@@](C#N)(c2ccc3c(=N)n(COP(=O)(O)O)cnn23)[C@H](O)[C@@H]1O)Oc1ccc(C(C)(C)C)cc1 (stereo partly drawn) [Example 179, 2-ethylbutyl ((4-(tert-butyl)phenoxy)(((2R,3S,4R,5R)-5-cyano-3,4-dihydroxy-5-(4-imino-3-((phosphonooxy)methyl)-3,4-dihydropyrrolo[2,1-f][1,2,4]triazin-7-yl)tetrahydrofuran-2-yl)methoxy)phosphoryl)-L-alaninate] | 850 nM | 7.84 nM |  |  | 16.8 nM |  | 
